Literature values, collected in US7816398B2, “Fatty alcohol drug conjugates” (Luitpold Pharmaceuticals, Inc., priority 2001, dated 2010).

Conditions: relative to irinotecan

Structure (SMILES): CCc1c2c(nc3ccc(O)cc13)-c1cc3c(c(=O)n1C2)COC(=O)[C@]3(O)CC [SN-38]
- times more potent than Irinotecan: ~100 times
